PubChem BioAssay AID1963967 (Molecular Pharmacology Branch, DTP, NCI, 2024)

Tested on: 855422-203-R-J1-PDC spheroids with HUVEC/MSC, viability
Assay: Anticancer human tumor 855422-203-R-J1-PDC patient-derived bladder carcinoma cell line growth inhibition [PI3K]
Details: for IC50: curve of first compound; for viability, T/C: stronger effect = lower value
Outline: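 Combination activity was assessed by viability in multicellular tumor spheroids carrying HUVEC and MSC components. Agents were tested with PI3K inhibitors from a Cmax-based top dose (or 10 microM) downward in half-log increments.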

[1] = second compound 0.00316 µM, first compound 0.000316 µM
[2] = second compound 0.00316 µM, first compound 0.001 µM
[3] = second compound 0.00316 µM, first compound 0.00316 µM
[4] = second compound 0.00316 µM, first compound 0.01 µM
[5] = second compound 0.00316 µM, first compound 0.0316 µM
[6] = second compound 0.00316 µM, first compound 0.1 µM
[7] = second compound 0.01 µM, first compound 0.000316 µM
[8] = second compound 0.01 µM, first compound 0.001 µM
[9] = second compound 0.01 µM, first compound 0.00316 µM
[10] = second compound 0.01 µM, first compound 0.01 µM
[11] = second compound 0.01 µM, first compound 0.0316 µM
[12] = second compound 0.01 µM, first compound 0.1 µM
[13] = second compound 0.0316 µM, first compound 0.000316 µM
[14] = second compound 0.0316 µM, first compound 0.001 µM
[15] = second compound 0.0316 µM, first compound 0.00316 µM
[16] = second compound 0.0316 µM, first compound 0.01 µM
[17] = second compound 0.0316 µM, first compound 0.0316 µM
[18] = second compound 0.0316 µM, first compound 0.1 µM
[19] = second compound 0.1 µM, first compound 0.000316 µM
[20] = second compound 0.1 µM, first compound 0.001 µM
[21] = second compound 0.1 µM, first compound 0.00316 µM
[22] = second compound 0.1 µM, first compound 0.01 µM
[23] = second compound 0.1 µM, first compound 0.0316 µM
[24] = second compound 0.1 µM, first compound 0.1 µM
[25] = second compound 0.316 µM, first compound 0.000316 µM
[26] = second compound 0.316 µM, first compound 0.001 µM
[27] = second compound 0.316 µM, first compound 0.00316 µM
[28] = second compound 0.316 µM, first compound 0.01 µM
[29] = second compound 0.316 µM, first compound 0.0316 µM
[30] = second compound 0.316 µM, first compound 0.1 µM
[31] = second compound 1 µM, first compound 0.000316 µM
[32] = second compound 1 µM, first compound 0.001 µM
[33] = second compound 1 µM, first compound 0.00316 µM
[34] = second compound 1 µM, first compound 0.01 µM
[35] = second compound 1 µM, first compound 0.0316 µM
[36] = second compound 1 µM, first compound 0.1 µM
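Note: agents incubated with spheroids for one week before read-out.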
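Throughout, for viability, T/C: 100% = DMSO vehicle-treated control wells.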

SMILES: CC(=O)c1c(C)c2cnc(Nc3ccc(N4CCNCC4)cn3)nc2n(C2CCCC2)c1=O + COc1c(OCCCN2CCOCC2)ccc2c3n(c(=NC(=O)c4cnc(N)nc4)nc12)CCN3
- IC50 (second compound 0.00316 µM): > 100 nM
- IC50 (second compound 0.01 µM): > 100 nM
- IC50 (second compound 0.0316 µM): 18.9 nM
- IC50 (second compound 0.1 µM): < 0.316 nM
- IC50 (second compound 0.316 µM): < 0.316 nM
- IC50 (second compound 1 µM): < 0.316 nM
- viability, T/C [1]: 91.7%
- viability, T/C [2]: 101%
- viability, T/C [3]: 95.2%
- viability, T/C [4]: 98.3%
- viability, T/C [5]: 90.5%
- viability, T/C [6]: 73.5%
- viability, T/C [7]: 83.1%
- viability, T/C [8]: 88.4%
- viability, T/C [9]: 88.2%
- viability, T/C [10]: 84.7%
- viability, T/C [11]: 86.6%
- viability, T/C [12]: 56.5%
- viability, T/C [13]: 67.9%
- viability, T/C [14]: 63.5%
- viability, T/C [15]: 58.4%
- viability, T/C [16]: 55.2%
- viability, T/C [17]: 47.6%
- viability, T/C [18]: 26.9%
- viability, T/C [19]: 26.8%
- viability, T/C [20]: 27.5%
- viability, T/C [21]: 22.6%
- viability, T/C [22]: 25.4%
- viability, T/C [23]: 20%
- viability, T/C [24]: 12.1%
- viability, T/C [25]: 10.4%
- viability, T/C [26]: 7.97%
- viability, T/C [27]: 9.28%
- viability, T/C [28]: 8.98%
- viability, T/C [29]: 6.22%
- viability, T/C [30]: 5.08%
- viability, T/C [31]: 3.62%
- viability, T/C [32]: 4.81%
- viability, T/C [33]: 3.28%
- viability, T/C [34]: 3.47%
- viability, T/C [35]: 4.56%
- viability, T/C [36]: 3.64%

SMILES: CC(C)n1nc(-c2ccc3oc(N)nc3c2)c2c(N)ncnc21 + COc1c(OCCCN2CCOCC2)ccc2c3n(c(=NC(=O)c4cnc(N)nc4)nc12)CCN3
- IC50 (second compound 0.00316 µM): 47 nM
- IC50 (second compound 0.01 µM): 31.3 nM
- IC50 (second compound 0.0316 µM): 10.6 nM
- IC50 (second compound 0.1 µM): < 0.316 nM
- IC50 (second compound 0.316 µM): < 0.316 nM
- IC50 (second compound 1 µM): < 0.316 nM
- viability, T/C [1]: 106%
- viability, T/C [2]: 88.3%
- viability, T/C [3]: 94.4%
- viability, T/C [4]: 81.5%
- viability, T/C [5]: 72.6%
- viability, T/C [6]: 14.6%
- viability, T/C [7]: 89.6%
- viability, T/C [8]: 87.7%
- viability, T/C [9]: 90.3%
- viability, T/C [10]: 86.5%
- viability, T/C [11]: 49.7%
- viability, T/C [12]: 10.4%
- viability, T/C [13]: 72.1%
- viability, T/C [14]: 68.8%
- viability, T/C [15]: 56.8%
- viability, T/C [16]: 53%
- viability, T/C [17]: 34.5%
- viability, T/C [18]: 7.16%
- viability, T/C [19]: 33.4%
- viability, T/C [20]: 30.8%
- viability, T/C [21]: 33.1%
- viability, T/C [22]: 29.3%
- viability, T/C [23]: 19.1%
- viability, T/C [24]: 4.35%
- viability, T/C [25]: 11.2%
- viability, T/C [26]: 10.2%
- viability, T/C [27]: 9.76%
- viability, T/C [28]: 9.27%
- viability, T/C [29]: 5.64%
- viability, T/C [30]: 2.5%
- viability, T/C [31]: 5.23%
- viability, T/C [32]: 5.41%
- viability, T/C [33]: 4.21%
- viability, T/C [34]: 4.46%
- viability, T/C [35]: 3.47%
- viability, T/C [36]: 1.3%
